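Interpolation was linear, between the two tested concentrations surrounding the appropriate level; five concentrations were tested over 48 hours in 96-well plates. At the TGI there is no net growth.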
Assays:
Assay in all cases: NCI-60 cell line screen, 48 h
MALME-3M melanoma = test system: MALME-3M melanoma
HCT-15 colon = test system: HCT-15 colon
ACHN renal = test system: ACHN renal
DMS 273 small cell lung = test system: DMS 273 small cell lung
SNB-75 CNS = test system: SNB-75 CNS
U251 CNS = test system: U251 CNS
K-562 leukemia = test system: K-562 leukemia
HL-60(TB) leukemia = test system: HL-60(TB) leukemia
HOP-92 NSCLC = test system: HOP-92 NSCLC
HOP-62 NSCLC = test system: HOP-62 NSCLC
NCI-H23 lung = test system: NCI-H23 lung
RPMI-8226 leukemia = test system: RPMI-8226 leukemia
SK-OV-3 ovarian = test system: SK-OV-3 ovarian
DLD-1 colon = test system: DLD-1 colon
HT29 colon = test system: HT29 colon
A549 NSCLC = test system: A549 NSCLC
SW-620 colon = test system: SW-620 colon
COLO 205 colon = test system: COLO 205 colon
KM20L2 colon = test system: KM20L2 colon
SK-MEL-5 melanoma = test system: SK-MEL-5 melanoma
A498 renal = test system: A498 renal
LOX IMVI melanoma = test system: LOX IMVI melanoma
SNB-19 CNS = test system: SNB-19 CNS
TK-10 renal = test system: TK-10 renal
OVCAR-5 ovarian = test system: OVCAR-5 ovarian
LXFL 529 NSCLC = test system: LXFL 529 NSCLC
HCC-2998 colon = test system: HCC-2998 colon
SN12C renal = test system: SN12C renal
786-0 renal = test system: 786-0 renal
SK-MEL-28 melanoma = test system: SK-MEL-28 melanoma
NCI-H522 lung = test system: NCI-H522 lung
OVCAR-8 ovarian = test system: OVCAR-8 ovarian
HOP-18 NSCLC = test system: HOP-18 NSCLC
M14 melanoma = test system: M14 melanoma
UO-31 renal = test system: UO-31 renal
EKVX NSCLC = test system: EKVX NSCLC
M19-MEL melanoma = test system: M19-MEL melanoma
NCI-H460 lung = test system: NCI-H460 lung
OVCAR-3 ovarian = test system: OVCAR-3 ovarian
UACC-62 melanoma = test system: UACC-62 melanoma
KM12 colon = test system: KM12 colon
CCRF-CEM leukemia = test system: CCRF-CEM leukemia
SNB-78 CNS = test system: SNB-78 CNS
SF-539 CNS = test system: SF-539 CNS
IGROV1 ovarian = test system: IGROV1 ovarian
SF-295 CNS = test system: SF-295 CNS
SK-MEL-2 melanoma = test system: SK-MEL-2 melanoma
DMS 114 small cell lung = test system: DMS 114 small cell lung
HCT-116 colon = test system: HCT-116 colon
CAKI-1 renal = test system: CAKI-1 renal
SF-268 CNS = test system: SF-268 CNS
UACC-257 melanoma = test system: UACC-257 melanoma
T-47D breast = test system: T-47D breast
HS 578T breast = test system: HS 578T breast
MOLT-4 leukemia = test system: MOLT-4 leukemia
NCI-H226 lung = test system: NCI-H226 lung
RXF 393 renal = test system: RXF 393 renal
DU-145 prostate = test system: DU-145 prostate
SR leukemia = test system: SR leukemia
NCI/ADR-RES ovarian = test system: NCI/ADR-RES ovarian
MCF7 breast = test system: MCF7 breast
MDA-MB-435 = test system: MDA-MB-435
PC-3 prostate = test system: PC-3 prostate
MDA-N = test system: MDA-N
MDA-MB-231 breast = test system: MDA-MB-231 breast
OVCAR-4 ovarian = test system: OVCAR-4 ovarian
BT-549 breast = test system: BT-549 breast

Measured: TGI

O=C(CP(=O)(O)O)c1cccs1
not listed: T-47D breast | HS 578T breast | MOLT-4 leukemia | NCI-H226 lung | RXF 393 renal | DU-145 prostate | SR leukemia | NCI/ADR-RES ovarian | MCF7 breast | MDA-MB-435 | PC-3 prostate | MDA-N | MDA-MB-231 breast | OVCAR-4 ovarian | BT-549 breast
> 100 µM: all other assays above

Cc1ccc(S(=O)(=O)N2CCSCCSCCSCCSCC2)cc1
60.7 µM: OVCAR-3 ovarian
38.1 µM: UACC-62 melanoma
66.4 µM: CAKI-1 renal
64.2 µM: OVCAR-4 ovarian
74.1 µM: T-47D breast
29.8 µM: SNB-75 CNS
39.3 µM: SF-295 CNS
47.3 µM: SNB-19 CNS
> 96.8 µM: SN12C renal
> 86.9 µM: SK-MEL-5 melanoma
> 57 µM: HOP-62 NSCLC
77.1 µM: NCI/ADR-RES ovarian
48.4 µM: OVCAR-8 ovarian
35.3 µM: U251 CNS
> 74.5 µM: TK-10 renal
> 92.6 µM: NCI-H23 lung
> 82.2 µM: NCI-H226 lung
> 53.1 µM: HS 578T breast
40.2 µM: 786-0 renal
> 53.6 µM: SK-MEL-2 melanoma
> 81.3 µM: UO-31 renal
46 µM: SK-OV-3 ovarian
56.6 µM: MDA-MB-231 breast
> 89.9 µM: EKVX NSCLC
44 µM: BT-549 breast
> 75.8 µM: SF-268 CNS
23.4 µM: HOP-92 NSCLC
43.7 µM: SF-539 CNS
> 69.8 µM: NCI-H522 lung
> 74.2 µM: A498 renal
> 45.9 µM: RXF 393 renal
not listed: DMS 273 small cell lung | DLD-1 colon | KM20L2 colon | LXFL 529 NSCLC | HOP-18 NSCLC | M19-MEL melanoma | SNB-78 CNS | DMS 114 small cell lung
> 100 µM: all other assays above

Source: PubChem BioAssay (NCI)
